Our source for the IC50 and CC50 values is patent publication US20130190289A1, “COMPOUNDS AND METHODS FOR THE TREATMENT OR PREVENTION OF FLAVIVIRUS INFECTIONS” (priority 2010, published 2013).

The test system of data set [1] is HCV replicon (genotype 1b) in Huh7 cell line ET. Nature of the data set: microbe, parasite or virus in culture. It counts as cell-based, HCV genotype 1b. Particulars: Hepatitis C virus, Huh-7, read-out: HCV-Replicon-(Luci-ET) 1b_IC50.
A short description of data set [2]: [3H]Thymidine incorporation assay (cell toxicity). Particulars: human.

Structures are written as SMILES. pIC50: −log10 of the molar value.

On to `CC1CN(C(=O)CN(c2cc(C#CC(C)(C)C)sc2C(=O)O)C(=O)[C@H]2CC[C@H](C)CC2)CCO1` (some centres unmarked) [Compound 26], for which the pIC50 in data set [1] was above 7.00. Further, the CC50 at 72 h in data set [2] was in the range of 10 to 100 µM.
The matching figures for `C[C@@H](C(=O)N1CC[C@H](O)C1)N(c1cc(C#CC(C)(C)C)sc1C(=O)O)C(=O)[C@H]1CC[C@H](C)CC1` [Compound 29, 5-(3,3-Dimethylbut-1-ynyl)-3-[[(1S)-2-[(3S)-3-hydroxypyrrolidin-1-yl]-1-methyl-2-oxo-ethyl]-(trans-4-methylcyclohexanecarbonyl)amino]thiophene-2-carboxylic acid]: above 7.00 and above 100 µM.
For `C[C@@H](C(=O)NC1CCOC1)N(c1cc(C#CC(C)(C)C)sc1C(=O)O)C(=O)[C@H]1CC[C@H](C)CC1` (stereo partly drawn) [Compound 30, 5-(3,3-Dimethylbut-1-ynyl)-3-[(trans-4-methylcyclohexanecarbonyl)-[(1S)-1-methyl-2-oxo-2-(tetrahydrofuran-3-ylamino)ethyl]amino]thiophene-2-carboxylic acid], in that order: above 7.00 and above 100 µM.
For `C[C@@H](C(=O)NC1CCC(O)CC1)N(c1cc(C#CC(C)(C)C)sc1C(=O)O)C(=O)[C@H]1CC[C@H](C)CC1` (stereo partly drawn) [Compound 31, 5-(3,3-Dimethylbut-1-ynyl)-3-[[(1S)-2-[(4-hydroxycyclohexyl)amino]-1-methyl-2-oxo-ethyl]-(trans-4-methylcyclohexanecarbonyl)amino]thiophene-2-carboxylic acid], in that order: above 7.00 and above 100 µM.
As for `C[C@@H](C(=O)N1CC[C@@H](O)C1)N(c1cc(C#CC(C)(C)C)sc1C(=O)O)C(=O)[C@H]1CC[C@H](C)CC1` [Compound 32, 5-(3,3-Dimethylbut-1-ynyl)-3-[[(1S)-2-[(3R)-3-hydroxypyrrolidin-1-yl]-1-methyl-2-oxo-ethyl]-(trans-4-methylcyclohexanecarbonyl)amino]thiophene-2-carboxylic acid], the pIC50 in data set [1] was above 7.00. Besides, the CC50 at 72 h in data set [2] was above 100 µM.
With `CN(C)C(=O)[C@H](CO)N(c1cc(C#CC(C)(C)C)sc1C(=O)O)C(=O)[C@H]1CC[C@H](C)CC1` [Compound 34, 3-[[(1S)-2-(dimethylamino)-1-(hydroxymethyl)-2-oxo-ethyl]-(trans-4-methylcyclohexanecarbonyl)amino]-5-(3,3-dimethylbut-1-ynyl)thiophene-2-carboxylic acid], in data set [1], the pIC50 was above 7.00. The CC50 at 72 h in data set [2] was above 100 µM.
Turning to `COC[C@@H](C(=O)N1CCCC1)N(C(=O)C1CCCCC1)c1cc(C#CC(C)(C)C)sc1C(=O)O` [Compound 36, 3-[Cyclohexanecarbonyl-[(1S)-1-(methoxymethyl)-2-oxo-2-pyrrolidin-1-yl-ethyl]amino]-5-(3,3-dimethylbut-1-ynyl)thiophene-2-carboxylic acid], the pIC50 in data set [1] is 6.00 to 7.00. Further, the 50% cytotoxic concentration (CC50) at 72 h in data set [2] is above 100 µM.
Regarding `C[C@@H](C(=O)N(C)CCO)N(c1cc(C#CC(C)(C)C)sc1C(=O)O)C(=O)[C@H]1CC[C@H](C)CC1` [Compound 37, 5-(3,3-Dimethylbut-1-ynyl)-3-[[(1S)-2-[2-hydroxyethyl(methyl)amino]-1-methyl-2-oxo-ethyl]-(trans-4-methylcyclohexanecarbonyl)amino]thiophene-2-carboxylic acid], the pIC50 in data set [1] was above 7.00. The compound further came in with a CC50 at 72 h in data set [2] above 100 µM.
For `COCCN(C)C(=O)[C@H](C)N(c1cc(C#CC(C)(C)C)sc1C(=O)O)C(=O)[C@H]1CC[C@H](C)CC1` [Compound 38, 5-(3,3-Dimethylbut-1-ynyl)-3-[[(1S)-2-[2-methoxyethyl(methyl)amino]-1-methyl-2-oxo-ethyl]-(trans-4-methylcyclohexanecarbonyl)amino]thiophene-2-carboxylic acid], in that order: above 7.00 and above 100 µM.
For `C[C@@H](C(=O)N1CC[C@H](CO)C1)N(c1cc(C#CC(C)(C)C)sc1C(=O)O)C(=O)[C@H]1CC[C@H](C)CC1` [Compound 39, 5-(3,3-Dimethylbut-1-ynyl)-3-[[(1S)-2-[(3S)-3-(hydroxymethyl)pyrrolidin-1-yl]-1-methyl-2-oxo-ethyl]-(trans-4-methylcyclohexanecarbonyl)amino]thiophene-2-carboxylic acid], in that order: above 7.00 and above 100 µM.
The matching figures for `COC1CCCN(C(=O)[C@H](C)N(c2cc(C#CC(C)(C)C)sc2C(=O)O)C(=O)[C@H]2CC[C@H](C)CC2)C1` (stereo partly drawn) [Compound 40, 5-(3,3-Dimethylbut-1-ynyl)-3-[[(1S)-2-(3-methoxy-1-piperidyl)-1-methyl-2-oxo-ethyl]-(trans-4-methylcyclohexanecarbonyl)amino]thiophene-2-carboxylic acid]: above 7.00 and above 100 µM.
`CN(C(=O)CN(c1cc(C#CC(C)(C)C)sc1C(=O)O)C(=O)[C@H]1CC[C@H](C)CC1)C1CCOCC1` [Compound 43]: the pIC50 in data set [1] was above 7.00. In data set [2], this compound returned a CC50 at 72 h above 100 µM.
For `COC1CCN(C(=O)CN(c2cc(C#CC(C)(C)C)sc2C(=O)O)C(=O)[C@H]2CC[C@H](C)CC2)CC1` [Compound 44], in that order: above 7.00 and above 100 µM.
For `CC(C)(C)C#Cc1cc(N(CC(=O)N2CCCCC2)C(=O)[C@H]2CC[C@H](C)CC2)c(C(=O)O)s1` [Compound 46], in that order: above 7.00 and above 100 µM.
The matching figures for `CC1COCCN1C(=O)[C@H](C)N(c1cc(C#CC(C)(C)C)sc1C(=O)O)C(=O)[C@H]1CC[C@H](C)CC1` (stereo partly drawn) [Compound 47, 5-(3,3-dimethylbut-1-ynyl)-3-[(trans-4-methylcyclohexanecarbonyl)-[(1S)-1-methyl-2-(3-methylmorpholin-4-yl)-2-oxo-ethyl]amino]thiophene-2-carboxylic acid]: above 7.00 and above 100 µM.
On to `C[C@@H]1CN(C(=O)[C@H](C)N(c2cc(C#CC(C)(C)C)sc2C(=O)O)C(=O)[C@H]2CC[C@H](C)CC2)C[C@H](C)O1` [Compound 48, 5-(3,3-Dimethylbut-1-ynyl)-3-[[(1S)-2-[(2R,6S)-2,6-dimethylmorpholin-4-yl]-1-methyl-2-oxo-ethyl]-(trans-4-methylcyclohexanecarbonyl)amino]thiophene-2-carboxylic acid], for which the pIC50 in data set [1] was above 7.00. In data set [2], the CC50 at 72 h was 10 to 100 µM.
The matching figures for `CC1CN(C(=O)[C@H](C)N(c2cc(C#CC(C)(C)C)sc2C(=O)O)C(=O)[C@H]2CC[C@H](C)CC2)CCO1` (stereo partly drawn) [Compound 49, 5-(3,3-Dimethylbut-1-ynyl)-3-[(trans-4-methylcyclohexanecarbonyl)-[(1S)-1-methyl-2-(2-methylmorpholin-4-yl)-2-oxo-ethyl]amino]thiophene-2-carboxylic acid]: above 7.00 and above 100 µM.
For `C[C@@H](C(=O)N1CCOC(C)(C)C1)N(c1cc(C#CC(C)(C)C)sc1C(=O)O)C(=O)[C@H]1CC[C@H](C)CC1` [Compound 50, 5-(3,3-Dimethylbut-1-ynyl)-3-[[(1S)-2-(2,2-dimethylmorpholin-4-yl)-1-methyl-2-oxo-ethyl]-(trans-4-methylcyclohexanecarbonyl)amino]thiophene-2-carboxylic acid], in that order: above 7.00 and above 100 µM.
The matching figures for `C[C@@H](C(=O)N(C)C1CCOCC1)N(c1cc(C#CC(C)(C)C)sc1C(=O)O)C(=O)[C@H]1CC[C@H](C)CC1` [Compound 51, 5-(3,3-Dimethylbut-1-ynyl)-3-[(trans-4-methylcyclohexanecarbonyl)-[(1S)-1-methyl-2-[methyl(tetrahydropyran-4-yl)amino]-2-oxo-ethyl]amino]thiophene-2-carboxylic acid]: above 7.00 and above 100 µM.
Consider `COC1CN(C(=O)[C@H](C)N(c2cc(C#CC(C)(C)C)sc2C(=O)O)C(=O)[C@H]2CC[C@H](C)CC2)C1` [Compound 52, 5-(3,3-Dimethylbut-1-ynyl)-3-[[(1S)-2-(3-methoxyazetidin-1-yl)-1-methyl-2-oxo-ethyl]-(trans-4-methylcyclohexanecarbonyl)amino]thiophene-2-carboxylic acid], for which the pIC50 in data set [1] was above 7.00. The CC50 at 72 h in data set [2] is above 100 µM.
For `COC1CCN(C(=O)[C@H](C)N(c2cc(C#CC(C)(C)C)sc2C(=O)O)C(=O)[C@H]2CC[C@H](C)CC2)CC1` [Compound 53, 5-(3,3-Dimethylbut-1-ynyl)-3-[[(1S)-2-(4-methoxy-1-piperidyl)-1-methyl-2-oxo-ethyl]-(trans-4-methylcyclohexanecarbonyl)amino]thiophene-2-carboxylic acid], in that order: above 7.00 and above 100 µM.
In the case of `C[C@@H](C(=O)N1CCCC(O)C1)N(c1cc(C#CC(C)(C)C)sc1C(=O)O)C(=O)[C@H]1CC[C@H](C)CC1` (stereo partly drawn) [Compound 54, 5-(3,3-Dimethylbut-1-ynyl)-3-[[(1S)-2-(3-hydroxy-1-piperidyl)-1-methyl-2-oxo-ethyl]-(trans-4-methylcyclohexanecarbonyl)amino]thiophene-2-carboxylic acid], the pIC50 in data set [1] was above 7.00. This compound had a CC50 at 72 h in data set [2] above 100 µM.
For `CO[C@H](C)[C@@H](C(=O)N1CCOCC1)N(c1cc(C#CC(C)(C)C)sc1C(=O)O)C(=O)[C@H]1CC[C@H](C)CC1` [Compound 58, 5-(3,3-Dimethylbut-1-ynyl)-3-[[(1S,2R)-2-methoxy-1-(morpholine-4-carbonyl)propyl]-(trans-4-methylcyclohexanecarbonyl)amino]thiophene-2-carboxylic acid], in that order: above 7.00 and above 100 µM.
The matching figures for `C[C@@H](O)[C@@H](C(=O)N(C)C)N(c1cc(C#CC(C)(C)C)sc1C(=O)O)C(=O)[C@H]1CC[C@H](C)CC1` [Compound 59]: above 7.00 and above 100 µM.
For `C[C@@H](O)[C@@H](C(=O)N1CCOCC1)N(c1cc(C#CC(C)(C)C)sc1C(=O)O)C(=O)[C@H]1CC[C@H](C)CC1` [Compound 60, 5-(3,3-Dimethylbut-1-ynyl)-3-[[(1S,2R)-2-hydroxy-1-(morpholine-4-carbonyl)propyl]-(trans-4-methylcyclohexanecarbonyl)amino]thiophene-2-carboxylic acid], in that order: above 7.00 and above 100 µM.
